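Test compounds were applied to cells in 96-well plates for 48 hours at 5 doses. GI50 = concentration required for 50% inhibition of growth.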 Activity calls are given as the source filed them. Cut-off read from the data, not from the text of the source: active = GI50 up to about 1.1 µM and inactive = higher.
What was measured:
Assay in all cases: growth of human tumour cells (NCI), 48 h
A498 = tested on: A498
HOP-62 = tested on: HOP-62
DMS-114 = tested on: DMS-114
SR = tested on: SR
SK-MEL-5 = tested on: SK-MEL-5
M19-MEL = tested on: M19-MEL
ACHN = tested on: ACHN
MCF7 = tested on: MCF7
LOX IMVI = tested on: LOX IMVI
CAKI-1 = tested on: CAKI-1
UACC-62 = tested on: UACC-62
K562 = tested on: K562
BT-549 = tested on: BT-549
HCC 2998 = tested on: HCC 2998
MDA-MB-435 = tested on: MDA-MB-435
SF-295 = tested on: SF-295
UO-31 = tested on: UO-31
Hs-578T = tested on: Hs-578T
NCI/ADR-RES = tested on: NCI/ADR-RES
SF-268 = tested on: SF-268
786-0 = tested on: 786-0
HT-29 = tested on: HT-29
RXF 393 = tested on: RXF 393
M14 = tested on: M14
COLO 205 = tested on: COLO 205
NCI-H23 = tested on: NCI-H23
SN12C = tested on: SN12C
RPMI-8226 = tested on: RPMI-8226
SK-MEL-2 = tested on: SK-MEL-2
SF-539 = tested on: SF-539
CCRF-CEM = tested on: CCRF-CEM
OVCAR-8 = tested on: OVCAR-8
SK-MEL-28 = tested on: SK-MEL-28
SW-620 = tested on: SW-620
EKVX = tested on: EKVX
OVCAR-5 = tested on: OVCAR-5
KM12 = tested on: KM12
XF498 = tested on: XF498
KM-20L2 = tested on: KM-20L2
SNB-75 = tested on: SNB-75
DMS-273 = tested on: DMS-273
NCI-H460 = tested on: NCI-H460
NCI-H522 = tested on: NCI-H522
HCT-116 = tested on: HCT-116
NCI-H226 = tested on: NCI-H226
Malme-3M = tested on: Malme-3M
SNB-19 = tested on: SNB-19
HCT-15 = tested on: HCT-15
HOP-18 = tested on: HOP-18
MDA-N = tested on: MDA-N
A549 = tested on: A549
LXFL 529 = tested on: LXFL 529
HL-60 = tested on: HL-60
DU-145 = tested on: DU-145
U-251 = tested on: U-251
IGROV-1 = tested on: IGROV-1
OVCAR-4 = tested on: OVCAR-4
SNB-78 = tested on: SNB-78
UACC-257 = tested on: UACC-257
PC-3 = tested on: PC-3
DLD-1 = tested on: DLD-1
SK-OV-3 = tested on: SK-OV-3
TK-10 = tested on: TK-10
RXF 631 = tested on: RXF 631
MDA-MB-231 = tested on: MDA-MB-231
OVCAR-3 = tested on: OVCAR-3
MOLT-4 = tested on: MOLT-4
HOP-92 = tested on: HOP-92

Compound: CN(C)CC1CC/C(=C\c2ccc3c(c2)OCO3)C1=O (stereo not drawn)
- GI50 (A498): 19 µM (inactive)
- GI50 (HOP-62): > 51.6 µM (inactive)
- GI50 (DMS-114): 18.4 µM (inactive)
- GI50 (SR): 2.82 µM (inactive)
- GI50 (SK-MEL-5): 14.2 µM (inactive)
- GI50 (M19-MEL): 16.4 µM (inactive)
- GI50 (ACHN): 13.9 µM (inactive)
- GI50 (MCF7): 3.96 µM (inactive)
- GI50 (LOX IMVI): 1.95 µM (inactive)
- GI50 (CAKI-1): 8.89 µM (inactive)
- GI50 (UACC-62): 16.7 µM (inactive)
- GI50 (K562): 2.83 µM (inactive)
- GI50 (BT-549): 11.2 µM (inactive)
- GI50 (HCC 2998): 22.1 µM (inactive)
- GI50 (MDA-MB-435): 1.93 µM (inactive)
- GI50 (SF-295): 23.1 µM (inactive)
- GI50 (UO-31): 10.6 µM (inactive)
- GI50 (Hs-578T): 4.38 µM (inactive)
- GI50 (NCI/ADR-RES): 2.79 µM (inactive)
- GI50 (SF-268): 11.2 µM (inactive)
- GI50 (786-0): 6.85 µM (inactive)
- GI50 (HT-29): 14.5 µM (inactive)
- GI50 (RXF 393): 15.7 µM (inactive)
- GI50 (M14): 7.4 µM (inactive)
- GI50 (COLO 205): 8.49 µM (inactive)
- GI50 (NCI-H23): 9.62 µM (inactive)
- GI50 (SN12C): 7.89 µM (inactive)
- GI50 (RPMI-8226): 1.85 µM (inactive)
- GI50 (SK-MEL-2): 13 µM (inactive)
- GI50 (SF-539): 16.3 µM (inactive)
- GI50 (CCRF-CEM): 2.79 µM (inactive)
- GI50 (OVCAR-8): 8.61 µM (inactive)
- GI50 (SK-MEL-28): 10.5 µM (inactive)
- GI50 (SW-620): 6.4 µM (inactive)
- GI50 (EKVX): 18.9 µM (inactive)
- GI50 (OVCAR-5): 18 µM (inactive)
- GI50 (KM12): 6.79 µM (inactive)
- GI50 (XF498): 18.3 µM (inactive)
- GI50 (KM-20L2): 19.7 µM (inactive)
- GI50 (SNB-75): 5.53 µM (inactive)
- GI50 (DMS-273): 16.8 µM (inactive)
- GI50 (NCI-H460): 19.5 µM (inactive)
- GI50 (NCI-H522): 3.89 µM (inactive)
- GI50 (HCT-116): 6.75 µM (inactive)
- GI50 (NCI-H226): 20.4 µM (inactive)
- GI50 (Malme-3M): 9.46 µM (inactive)
- GI50 (SNB-19): 16.2 µM (inactive)
- GI50 (HCT-15): 6.67 µM
- GI50 (HOP-18): 15.9 µM (inactive)
- GI50 (MDA-N): 4.42 µM (inactive)
- GI50 (A549): 28.2 µM (inactive)
- GI50 (LXFL 529): 12.6 µM (inactive)
- GI50 (HL-60): 2.56 µM (inactive)
- GI50 (DU-145): 7.66 µM (inactive)
- GI50 (U-251): 18.3 µM (inactive)
- GI50 (IGROV-1): 9.75 µM (inactive)
- GI50 (OVCAR-4): 9.29 µM (inactive)
- GI50 (SNB-78): 21.8 µM (inactive)
- GI50 (UACC-257): 8.97 µM (inactive)
- GI50 (PC-3): 13.6 µM (inactive)
- GI50 (DLD-1): 6.84 µM (inactive)
- GI50 (SK-OV-3): > 43.1 µM (inactive)
- GI50 (TK-10): 11.1 µM (inactive)
- GI50 (RXF 631): 12.7 µM (inactive)
- GI50 (MDA-MB-231): 2.38 µM (inactive)
- GI50 (OVCAR-3): 7.74 µM (inactive)
- GI50 (MOLT-4): 2.98 µM (inactive)
- GI50 (HOP-92): 15.1 µM (inactive)
